Some test systems named below: BT-549 breast; CCRF-CEM leukemia; COLO 205 colon; HOP-92 NSCLC; OVCAR-8 ovarian; SK-MEL-28 melanoma; SN12C renal; SW-620 colon; T-47D breast; UACC-62 melanoma.
Common to all, as to assay: inhibition of tumour cell growth, NCI panel, 48 h

This passage reports GI50 and TGI results from PubChem BioAssay (NCI).

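Grown in 96-well plates, cells were treated for 48 hours with each compound at five concentrations. Insufficient inhibition: endpoint recorded as highest concentration tested. GI50 is the concentration that inhibits growth by half. TGI is the concentration that stops growth completely.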

On to `NC(N)=N/N=C/c1c(-c2ccncc2)nc2sc(Cl)cn12`, for which the GI50 in the assay on BT-549 breast was 10.3 µM; in the assay on CCRF-CEM leukemia, 2 µM; with COLO 205 colon it was 4.21 µM; in the assay on HOP-92 NSCLC, 1.43 µM; with OVCAR-8 ovarian, 15.2 µM; in the assay with SK-MEL-28 melanoma it was 14.3 µM. Also, the GI50 in the assay with SN12C renal was 2.59 µM; in the assay on SW-620 colon it was 7.34 µM; with T-47D breast, 28.6 µM; in the assay on UACC-62 melanoma it was 1.88 µM. The TGI in the assay with BT-549 breast amounted to 27.8 µM; in the assay with CCRF-CEM leukemia, 4.58 µM; with HOP-92 NSCLC, 4.63 µM; with OVCAR-8 ovarian it was 36.4 µM; in the assay with SK-MEL-28 melanoma, 38.8 µM; in the assay with SN12C renal, 8.58 µM. Also, the TGI with SW-620 colon worked out at 18 µM; in the assay with T-47D breast, 56.6 µM; in the assay on UACC-62 melanoma, 4.91 µM.

On to `N#CCC1(n2cc(-c3ncnc4[nH]ccc34)cn2)CN(C2CCN(C(=O)c3ccnc(C(F)(F)F)c3F)CC2)C1`, for which the GI50 in the assay with BT-549 breast is 37.5 µM; in the assay on CCRF-CEM leukemia, 54.5 µM; in the assay with COLO 205 colon, 57.8 µM; in the assay on HOP-92 NSCLC, 20.7 µM; with OVCAR-8 ovarian, greater than 100 µM; in the assay with SK-MEL-28 melanoma it was greater than 100 µM. Further, the GI50 is 69.8 µM in the assay on SN12C renal, 83.5 µM with SW-620 colon, 51.7 µM with T-47D breast and 76.4 µM in the assay on UACC-62 melanoma. Further, the TGI with BT-549 breast, in the assay on CCRF-CEM leukemia, with COLO 205 colon, with HOP-92 NSCLC, in the assay with OVCAR-8 ovarian and with SK-MEL-28 melanoma was greater than 100 µM in each case. Moreover, the TGI in the assay with SN12C renal, with SW-620 colon, in the assay on T-47D breast and in the assay on UACC-62 melanoma was greater than 100 µM throughout.

Turning to `O=c1nc2[nH]c3c(-c4n[nH]c(=O)[nH]c4=O)cccc3c2n[nH]1`, the GI50 was greater than 100 µM with BT-549 breast; greater than 100 µM in the assay on CCRF-CEM leukemia; greater than 100 µM in the assay on COLO 205 colon; 78.1 µM in the assay with HOP-92 NSCLC; greater than 100 µM with OVCAR-8 ovarian; greater than 100 µM in the assay with SK-MEL-28 melanoma. In addition, the GI50 with SN12C renal, in the assay on SW-620 colon, in the assay with T-47D breast and with UACC-62 melanoma was greater than 100 µM each time. Moreover, the TGI in the assay with BT-549 breast, in the assay on CCRF-CEM leukemia, in the assay on COLO 205 colon, in the assay with HOP-92 NSCLC, in the assay with OVCAR-8 ovarian and in the assay with SK-MEL-28 melanoma was greater than 100 µM each time. Besides, the TGI in the assay with SN12C renal, with SW-620 colon, in the assay on T-47D breast and in the assay with UACC-62 melanoma was greater than 100 µM each time.

As for `N#CCCN(CCC#N)c1ccc(C=Nc2ccc(F)cc2)cc1`, the TGI in the assay on BT-549 breast is greater than 100 µM; in the assay on CCRF-CEM leukemia it was greater than 100 µM; in the assay on COLO 205 colon it was 70.3 µM; in the assay with HOP-92 NSCLC, greater than 100 µM; in the assay on OVCAR-8 ovarian, greater than 100 µM; with SK-MEL-28 melanoma, greater than 100 µM. Moreover, the TGI in the assay on SN12C renal was greater than 100 µM; with SW-620 colon, greater than 100 µM; in the assay on T-47D breast, greater than 100 µM; in the assay on UACC-62 melanoma it was greater than 54.2 µM.

Consider `COc1cc(OC)cc(-c2ccc(-c3ccc(C(=N)N)cn3)s2)c1`, for which the GI50 is 10.5 µM with BT-549 breast; 2.71 µM in the assay with CCRF-CEM leukemia; 2.11 µM with COLO 205 colon; 1.7 µM with HOP-92 NSCLC; 2.3 µM in the assay on OVCAR-8 ovarian; 1.84 µM in the assay on SK-MEL-28 melanoma. Also, the GI50 in the assay on SN12C renal was 1.78 µM; in the assay with SW-620 colon, 1.91 µM; in the assay with T-47D breast, 2.1 µM; in the assay with UACC-62 melanoma, 1.85 µM. Also, the TGI amounted to 26.4 µM in the assay with BT-549 breast; 7.29 µM in the assay on CCRF-CEM leukemia; 4.62 µM with COLO 205 colon; 3.52 µM in the assay on HOP-92 NSCLC; 5.3 µM in the assay with OVCAR-8 ovarian; 3.43 µM in the assay with SK-MEL-28 melanoma. Besides, the TGI in the assay with SN12C renal was 3.8 µM; in the assay on SW-620 colon, 3.8 µM; in the assay on T-47D breast, 5.09 µM; in the assay on UACC-62 melanoma, 3.54 µM.

Consider `C=C(Cn1c2ccccc2c(=O)c2ccccc21)c1ccc(C(=O)Nc2ccccc2N)cc1`, for which the GI50 was 4.07 µM in the assay with BT-549 breast; 0.224 µM in the assay with CCRF-CEM leukemia; 16.2 µM in the assay on COLO 205 colon; 5.87 µM in the assay on HOP-92 NSCLC; greater than 100 µM with OVCAR-8 ovarian; greater than 100 µM in the assay on SK-MEL-28 melanoma. Further, the GI50 was greater than 100 µM with SN12C renal, 6.56 µM in the assay on SW-620 colon, 2.8 µM in the assay with T-47D breast and greater than 100 µM in the assay on UACC-62 melanoma. In addition, the TGI was greater than 100 µM in the assay with BT-549 breast; 19.2 µM in the assay on CCRF-CEM leukemia; greater than 100 µM in the assay with COLO 205 colon; greater than 100 µM in the assay with HOP-92 NSCLC; greater than 100 µM with OVCAR-8 ovarian; greater than 100 µM in the assay on SK-MEL-28 melanoma. Moreover, the TGI with SN12C renal is greater than 100 µM; in the assay on SW-620 colon, greater than 100 µM; in the assay on T-47D breast, greater than 80 µM; in the assay with UACC-62 melanoma, greater than 100 µM.

As to `C#CC#CC#CC#CC#CC#CC#CC#CC[C@@H]1OC[C@@H](COC(=O)O[C@@H](C(=O)O[C@H]2C[C@@]3(O)[C@@H](OC(=O)c4ccccc4)[C@@H]4[C@]5(OC(C)=O)CO[C@@H]5C[C@H](O)[C@@]4(C)C(=O)[C@H](OC(C)=O)C(=C2C)C3(C)C)[C@@H](NC(=O)c2ccccc2)c2ccccc2)O1`, the GI50 in the assay with BT-549 breast is 0.639 µM; in the assay with CCRF-CEM leukemia it was 0.354 µM; in the assay with COLO 205 colon, 0.181 µM; in the assay with OVCAR-8 ovarian, 0.46 µM; in the assay on SN12C renal, 1.03 µM; in the assay with SW-620 colon, 0.188 µM. The GI50 in the assay on T-47D breast was 0.335 µM; in the assay on UACC-62 melanoma, 0.815 µM. Further, the TGI with BT-549 breast, in the assay on CCRF-CEM leukemia, in the assay with COLO 205 colon, in the assay with HOP-92 NSCLC, in the assay on OVCAR-8 ovarian and in the assay with SN12C renal was greater than 33.3 µM in each case. Besides, the TGI in the assay with SW-620 colon, in the assay on T-47D breast and in the assay with UACC-62 melanoma was greater than 33.3 µM in each case.

On to `N/C(=N\C(N)=N\c1nc2ccccc2s1)c1cnccn1`, for which the GI50 was 3.97 µM in the assay on BT-549 breast; 3.59 µM with CCRF-CEM leukemia; 3.05 µM in the assay on HOP-92 NSCLC; 3.11 µM in the assay on OVCAR-8 ovarian; 2.3 µM in the assay on SK-MEL-28 melanoma; 4.18 µM in the assay on SN12C renal. The GI50 with SW-620 colon was 3.68 µM; with T-47D breast it was 2.24 µM; in the assay with UACC-62 melanoma, 1.74 µM. Besides, the TGI with BT-549 breast was 96 µM; in the assay on CCRF-CEM leukemia it was greater than 100 µM; with HOP-92 NSCLC it was 16.1 µM; with OVCAR-8 ovarian, 26.5 µM; with SK-MEL-28 melanoma, 6.06 µM; in the assay on SN12C renal, greater than 100 µM. Moreover, the TGI is greater than 100 µM with SW-620 colon, 6.22 µM with T-47D breast and 3.52 µM with UACC-62 melanoma.
